Reference: patent US20100104546A1, “MODULATORS OF ANTIGEN-DEPENDENT T CELL PROLIFERATION” (CHILDREN, YOUTH AND WOMEN'S HEALTH SERVICE, priority 2007, published 2010)

Assays:
[1] = test system: circulating cytokine levels; assay: Circulating cytokine levels in SRBC-sensitized mice after intravenous SRBC challenge; type: in vivo; settings: serum, 80 mg/kg IP, 6 h after IV SRBC
Method: Mice were injected subcutaneously with SRBC. After 5 days β-oxa-21:3n-3 (80 mg/kg) or vehicle (whole mouse serum) were injected intraperitoneally. 2 hours later SRBC were injected intravenously. The blood was collected from orbital plexus at 6 hours post intravenous SRBC injection. Serum was separated and frozen immediately at −70° C. The levels of cytokine were measured using BD mouse CBA kits using a BD Array instrument (BD, La Jolla, Calif.).
The insights from these cytokine studies prompted us to investigate whether injected β-oxa-21:3n-3 could regulate cytokine levels in vivo. The β-oxa-21:3n-3- or vehicle-administered pre-immune animals were challenged intravenously with SRBC; after 6 h the serum prepared from the mouse blood and cytokine levels measured.

Human PBMC = assay: Human lymphocyte proliferation assay, antigen (tetanus toxoid)-induced; type: cell-based
Method: Peripheral blood mononuclear cells were purified from the blood of normal volunteers using hypagn-ficoll density gradient separation. In the assay 100 μl of PBM (treated or untreated) at a concentration of 2×10^6/ml were stimulated by the addition of 100 μl of PHA (μg/ml) or […] 2 μg/ml TT in microtitre plates. The cultures contained 5% human blood group AB serum. The cells were incubated at 37° C. in 5% CO2-air and high humidity for 72 h or 5 days (for TT). The cultures were pulsed with 1 μl of 3H-TdR 6 h prior to harvest. The amount of radioactivity incorporated was determined to assess the degree of lymphoproliferation.
To attempt to resolve this discrepancy, we examined the sensitivity of the antigen-induced (tetanus toxoid) human lymphocyte response in vitro, under the same conditions as those in which the PHA-induced response were inhibited by β-oxa21:3n-3. Human PBMC which were known to show lymphoproliferation in response to TT were pretreated with a range of concentrations of β-oxa21:3n-3 and then stimulated with TT. Proliferation was quantitated after […] of incubation of cultures. […] Using purified human T cells which were stimulated with PHA-PMA we were able to ascertain that when β-oxa21:3n-3 was added to cells the stimulated cells contained 30 fold more β-oxa-21:3n-3 than resting T cells (FIG. 5B).

[2] = test system: splenic T cells and MHC class II cells; assay: Co-culture of enriched splenic T cells and MHC class II cells, SRBC-induced proliferation; type: in vivo, mice; settings: 80 mg/kg IP, 3 days
Method: (A) β-oxa-21:3n-3 (80 mg/kg) or vehicle was injected once intraperitoneally to 5 days SRBC-sensitized mice. After the indicated time period spleens were removed and cell suspensions were incubated in the presence or absence of SRBC for 3 days. Thymidine incorporation for final 16 hours of culture was determined. Percent inhibition of proliferation by β-oxa-21:3n-3 compared to vehicle injected animals are depicted against duration of exposure. (B) β-oxa-21:3n-3 (80 mg/kg) or vehicle was injected once intraperitoneally to 5 days SRBC-sensitized mice. After two hours spleens were removed and T cell and MHC II positive cells were enriched using MACS magnetic beads. As indicated, vehicle and β-oxa-21:3n-3 injected animal's enriched cells were then co-cultured in the presence or absence of SRBC for 3 days. Thymidine incorporation for final 16 h of culture was determined. Splenocytes proliferation is plotted versus the type of co-cultured cells.
In co-culture experiments negative selection purification systems were utilized to ensure isolation of untouched cells to avoid side effects on cell viability and activity. […] For accuracy in cell counts and cell viability, the enriched cells were also inspected by hemocytometer and then counted using Cell-Dyne 3500R (ABBOTT, Inc. MA) and then co-cultured. […]

**Q.** CC/C=C\C/C=C\C/C=C\CCCCCCCCOCC(=O)O [β-oxa-21:3n-3] was tested. Which IFNγ conc [1] did it give?
**A.** 229 ± 40 pg/mL

**Q.** What about the IL-2 conc [1] of the same compound?
**A.** 73 ± 10 pg/mL

**Q.** And the IL-4 conc [1]?
**A.** 3.5 ± 2 pg/mL

**Q.** And the IL-5 conc [1]?
**A.** 120 ± 21 pg/mL

**Q.** What about the IL-6 conc [1] of the same compound?
**A.** 35 ± 8 pg/mL

**Q.** And the IL-10 conc [1]?
**A.** 9 ± 5 pg/mL

**Q.** What about the IL-12 conc [1] of the same compound?
**A.** 320 ± 145 pg/mL

**Q.** And the IL-13 conc [1]?
**A.** 0 ± 0 pg/mL

**Q.** And the KC conc [1]?
**A.** 61 ± 21 pg/mL

**Q.** And the MCP-1 conc [1]?
**A.** 2039 ± 457 pg/mL

**Q.** And the TNFα conc [1]?
**A.** 15 ± 3 pg/mL

**Q.** And the “sensitivity of antigen-induced response relative to mitogenic response” value (Human PBMC; TT versus PHA IC50)?
**A.** 15 fold

**Q.** And the IC50 (Human PBMC; tetanus toxoid-stimulated human PBMC, in vitro, read-out: IC50 for the inhibition of the antigen-induced response)?
**A.** 2 µM

**Q.** What about the “splenocyte proliferation, MHC class II cells from treated animals co-cultured with T cells from either treated or vehicle animals” value [2] of the same compound?
**A.** no suppression

**Q.** What about the “splenocyte proliferation, T cells from treated animals co-cultured with MHC class II cells from treated or vehicle animals” value [2] of the same compound?
**A.** suppressed
